Assay results published in patent US20080033040A1, “Methods And Compositions For Screening Involving Endothelial Cells Under Shearing Conditions” (priority 2004, published 2008).
Values joined by “and” are separate entries in the source; they are usually repeats but may differ in a detail not shown here. Equal values may be shown once. Read-outs that look alike come from different tables or passages of the source.

How the values were obtained:
[1] = tested on: PAEC; assay: Determination of intracellular superoxide by DHE, static culture (Example 2); type: cell-based, Porcine; details: for % of cells with fluorescent nuclei, hydrogen peroxide exposed sample with inhibitor: 60 μM H2O2; for % of cells with fluorescent nuclei, hydrogen peroxide exposed sample with inhibitor / % cells with fluorescent nuclei, control sample cultured with inhibitor: apocynin 0.25 μM; for % cells with fluorescent nuclei, control sample cultured with inhibitor: no H2O2
Procedure: Adenoviral-mediated gene transfer was conducted by infection of endothelial cells (85-95% confluence, University of Iowa Cardiovascular Research Center Cell Culture Facility) as previously described (Fang et al., 1998). Ad5CMVSOD2, Ad5CMVeNOS, and Ad5CMVeGFP were acquired from the University of Iowa Gene Transfer Vector Core (REF); Ad5CMVeGFP was used as a negative control. Porcine aortic endothelial cells were incubated with 125 PFU/cell MnSOD/eNOS/eGFP adenovirus in serum-free M199. To improve the efficiency of adenoviral uptake, the adenoviral stock was incubated for 30 minutes prior to addition to cell cultures (Kossila et al., 2002). Infected PAEC were incubated under standard conditions. After 3 hours, the virus-containing solution was removed, samples were washed with serum-free M199, and M199 supplemented with 1% Penicillin-Streptomycin and 2% FBS was added. After 45 hours of incubation (48 hours after initiation of infection) cells were prepared for experimentation.
Incubation continued for an additional 30 minutes with 2 μM dihydroethidium (Miller et al., 1998; Carter et al., 1994) (DHE, Molecular Probes). […] Images were captured using a Zeiss Axiovert S100 fluorescent microscope. Images were collected at a standard exposure of 4500 ms.
Image analysis was conducted with Slidebook 4 Imaging Software (company). Statistical analyses were conducted using the Student's t-Test assuming unequal variance. Values are reported as mean±standard error of the mean (SEM).

[2] = tested on: PAEC; assay: L-NAME inhibition of eNOS, superoxide by DHE, static; type: cell-based, Porcine
Procedure: In order to ascertain the role of eNOS in endothelial cell superoxide production, the presence of superoxide was probed in the presence of L-NAME. […] After incubation, 2 μM DHE was added to each sample and incubated for 30 minutes. […] Image analysis was conducted with Slidebook 4 Imaging Software (company). Statistical analyses were conducted using the Student's t-Test assuming unequal variance. Values are reported as mean±standard error of the mean (SEM).

[3] = tested on: PAEC; type: cell-based, Porcine
Procedure: An Immunetics cell adhesion chamber (Cambridge, Mass.) was utilized to determine PAEC behavior under shearing conditions. […] PAEC were exposed to a constant flow rate of 24.4 ml/min (2.2 dynes/cm^2) for 1.5 hours. Maintenance of PAEC at 37° C. was achieved by using a fluid reservoir contained in a constant temperature water bath (Precision). Challenged PAEC were exposed to 100 μM H2O2 in serum-free and phenyl red free M199; control PAEC were exposed to serum-free and phenyl red free M199 without H2O2.
After 1 hour of incubation, 2 μM dihydroethidium was added to the media reservoir.
Hydroethidium was used to examine superoxide production of infected and non-infected PAEC under H2O2 induced oxidative stress. PAEC on glass slides were subjected to laminar flow at 24.4 ml/min (2 dynes/cm^2). The circulating fluid contained 2 μM dihydroethidium as a marker for superoxide production.

[4] = tested on: PAEC; assay: Nitric oxide production (Greiss assay, DAF-FM diacetate staining); type: cell-based, Porcine; details: H2O2 exposure, limited length of experimentation
Excerpt: Nitric oxide production was quantified via Greiss assay and intracellular staining with DAF-FM diacetate.

[5] = tested on: Porcine aortic endothelial cells (PAEC); details: static
[6] = tested on: Porcine aortic endothelial cells (PAEC); details: shear 24.4 ml/min (2.2 dynes/cm2), 100 μM H2O2, 1.5 hours
Procedure: The flow system provided for oscillatory, laminar flow across the sample. […] Due to these factors, an increase in concentration to 100 μM H2O2 was necessary for experimentation under shearing conditions.
An Immunetics flow cell (Li et al., 1996) was prepared by first flushing the fluid path with deionized water and then phenyl red free M199. After flushing, 50 ml of the circulating medium was added and allowed to perfuse for 5 minutes while warming to 37° C. PAEC were then placed in the flow cell and the flow cell was secured to the microscope stage. Endothelial cells were maintained at 37° C. by fluid flow through a water bath (Precision, Winchester, Va.), at a flow rate of 24.4 ml/min (2.2 dynes/cm2), for 1.5 hours under 100 μM H2O2 in circulating medium. The PAEC not exposed to H2O2 were subjected to the same flow rate in serum free and phenyl red free M199 without H2O2. […] The experiment was conducted under constant imaging, with images being captured at 0, 15, 30, 60, and 90 minutes. […] All fluorescent images were acquired with phenyl red free media to eliminate interference of phenyl red and FBS in fluorescent imaging.

[7] = tested on: PAEC; details: 500 μM H2O2, 1 hour
Procedure: PAEC were cultured and infected as previously described. Forty-eight hours after infection, PAEC were incubated for 1 hour under 500 μM H2O2 in serum-free M199; control groups were incubated in serum-free M199. […] After incubation, 3 μM propidium iodide (PI) was added to each sample and incubated for 8 minutes. Samples were then washed with serum-free M199 and imaged at an exposure of 2500 ms. All fluorescent images were acquired in phenyl-red free media.

[8] = tested on: PAEC; assay: Determination of eNOS couple state with ascorbic acid, superoxide by DHE, static; type: cell-based, Porcine; details: 60 μM H2O2, 1 mM ascorbic acid
Procedure: In order to ascertain the role of the coupled state of eNOS in endothelial cell superoxide production, the presence of superoxide was probed in the presence of ascorbic acid. […] After incubation, 2 μM DHE was added to each sample and incubated for 30 minutes.

## OO [H2O2, hydrogen peroxide]
[1]; static culture
  fold increase in percent of superoxide producing cells, control vs H2O2 stressed: 10 fold
[1]; static, H2O2 challenged PAEC (60 μM H2O2)
  % of cells having fluorescent nuclei: 51.8±1.1%
[2]; 60 μM H2O2, no L-NAME
  % cells with fluorescent nuclei, challenged non-inhibited group: 23.8±3.8%
[3]
  % of cells with fluorescent nuclei, challenged PAEC (non-infected): 50.3±4.1%
  fold increase in percent of superoxide producing cells, non-infected control vs H2O2 stressed: 30 fold
[4]
  NO production (DAF-AM acetate intracellular staining): no significant increases
[5]; 3 μM H2O2, 1.5 hour exposure, 2.0 μM DHE
  % of PAEC exposed to H2O2 demonstrating intracellular superoxide: 1.2±0.2%
[5]; 30 μM H2O2, 1.5 hour exposure, 2.0 μM DHE
  % of PAEC found to produce intracellular superoxide: 77.1±5.5%
[5]; 1 mM H2O2
  % of PAEC exhibiting fluorescent nuclei: 76.1±6.8%
[5]; increasing H2O2 concentration, most notably at 1 mM
  cell membrane integrity of PAEC: loss in cell membrane integrity in a dose dependant manner
[6]
  % of PAEC exposed to H2O2 demonstrating intracellular superoxide: 49.5±3.3%
[7]
  percent of cells with ruptured cellular membranes: ten
  percent propidium iodide positive cells, challenged PAEC: more than ninety

## COC(=O)[C@@H](N)CCCNC(=N)N[N+](=O)[O-] [L-NAME, N^G-nitro-L-arginine methyl ester]
[2]; no H2O2, 1 mM L-NAME
  % cells with fluorescent nuclei, control with eNOS inhibition: 2.2±0.5% and 2.9±0.3%

## Oc1ncnc2[nH]ncc12 [allopurinol]
[1]; static
  % of cells with fluorescent nuclei, hydrogen peroxide exposed sample with inhibitor: 35.6±1.3%
  % cells with fluorescent nuclei, control sample cultured with inhibitor: 4.1±0.4%

## COc1cc(C(C)=O)ccc1O [apocynin, Apocynin]
[1]; apocynin 0.5 mM
  effect on superoxide production: minimal effects
[1]; static
  % of cells with fluorescent nuclei, hydrogen peroxide exposed sample with inhibitor: 35.1±2.0%
  % cells with fluorescent nuclei, control sample cultured with inhibitor: 14.2±1.3%

## O=C1O[C@H]([C@@H](O)CO)C(O)=C1O [ascorbic acid, Ascorbic Acid]
[8]
  superoxide production in presence of ascorbic acid: almost completely inhibited

## CC(C(=O)O)c1ccc(-c2ccccc2)c(F)c1 (stereo not shown) [flurbiprofen]
[1]; static
  % of cells with fluorescent nuclei, hydrogen peroxide exposed sample with inhibitor: 46.8±1.4%
  % cells with fluorescent nuclei, control sample cultured with inhibitor: 3.9±0.4%
